Assay results: patent US4190725A, “5,6-Diaryl-1,2,4-triazines” (Eli Lilly and Company, priority 1978, dated 1980)

Tested on: Erythemic response
Test: Erythemic response inhibition, UV-exposed guinea pig skin (modified method of Winder), topical
Type: in vivo, Albino guinea pigs
Conditions: groups of four; for ED50 (dose which produced a 50% inhibition of the erythemic response): in 0.1 cc. ethanol, 12 cm.^2 skin, plotted or calculated, in several instances by extrapolation; for Inhibition % (% Inhibition compared with control): dose 100 mcg./12 cm.^2, in 0.1 cc. ethanol
Protocol: A modification of the method of Winder was used to measure the anti-inflammatory activites of the compounds of the present invention; see C. V. Winder, et al., Arch. Int. Pharmacodyn., 116, 261 (1958). Albino guinea pigs of either sex, weighing 225-300 grams, were shaved on the back and chemically depilated (Nair® Lotion Hair Remover, Carter Products, N.Y., N.Y.) 18-20 hours before exposure to ultraviolet light. The animals, in groups of four and bearing identifying ear tags, were treated by applying to an area of skin of about 12 cm.^2 a solution of test compound dissolved in 0.1 cc. of ethanol. The control treatment consisted of administering only the drug vehicle, ethanol, to a group of four animals. Groups of four animals each were given different treatment levels of test compound to obtain dose responses. Random order and blind administration of the test compounds were employed; drug identification was not made until after all animals were graded. Immediately prior to drug application, the animals were exposed in groups of four to a high-intensity ultraviolet light for a measured period of time (usually 4-7 seconds). The ultraviolet light source, a Hanovia Lamp (Kroymayer-Model 10), was placed in contact with the skin of the animal's back. A gummed notebook paper reinforcement was affixed to the lamp lens to provide an unexposed area of contrast for grading the erythema. Beginning one hour after exposure and thereafter at half-hour intervals for another 11/2 hours, the degree of resulting erythema was graded by an arbiturary scoring system based upon the degree of contrast and redness formed. Anti-inflammatory agents delay the development of the erythema and usually have their greatest effect at the initial grading periods. The scores were, therefore, weighted by factors of 4, 3, 2, and 1 at the 1.0, 1.5, 2.0, and 2.5 hour scoring times, respectively. The erythema was graded as follows: […]
______________________________________
Score Appearance of Exposed Area
0 No redness and no contrast
1 Slight redness with a faint
2 Slight to moderate redness
with a distinct outline
3 Marked redness with a distinct
Total scores from each treatment group of four guinea pigs were compared to the control treatment, and the percent inhibition was calculated as follows: [formula]
A dose-response graph was obtained by plotting dose versus percent inhibition, the points representing the average of each treatment group of four guinea pigs. The dose (ED50) in micrograms per 12 cm.^2 (mcg./12 cm.^2) which produced a 50% inhibition of the erythemic response for the particular compound tested was obtained in several instances by extrapolation. Table I below summarizes the results obtained from testing representative compounds of the invention by the foregoing method. The plotted or calculated ED50 for the particular compound tested, where available, is given in the last column of Table I.

Row | SMILES | ED50 (dose which produced a 50% inhibition of the erythemic response) | Inhibition % (% Inhibition compared with control)
1 | COc1ccc(-c2nnc(OC)nc2-c2ccc(OC)cc2)cc1 [CH3 O 1 OCH3 OCH3, 3-methoxy-5,6-bis(4-methoxyphenyl)-1,2,4-triazine] | 7 mcg./12 cm.^2 | 
2 | COc1ccc(-c2nnc(SCc3ccccc3)nc2-c2ccc(OC)cc2)cc1 [CH2 C6 H5 S 1 OCH3 OCH3, 3-benzylthio-5,6-bis(4-methoxyphenyl)-1,2,4-triazine] |  | 49%
3 | COc1ccc(-c2nnc(C)nc2-c2ccc(OC)cc2)cc1 [CH3 -- 0 OCH3 OCH3, 5,6-bis(4-methoxyphenyl)-3-methyl-1,2,4-triazine] | 2.4 mcg./12 cm.^2 | 
4 | CCc1nnc(-c2ccc(OC)cc2)c(-c2ccc(OC)cc2)n1 [C2 H5 -- 0 OCH3 OCH3, 3-ethyl-5,6-bis(4-methoxyphenyl)-1,2,4-triazine] | 4 mcg./12 cm.^2 | 
5 | CCCCCCSc1nnc(-c2ccc(OC)cc2)c(-c2ccc(OC)cc2)n1 [C6 H13 S 1 OCH3 OCH3, 3-hexylthio-5,6-bis(4-methoxyphenyl)-1,2,4-triazine] | 37.4 mcg./12 cm.^2 | 
6 | CCSc1nnc(-c2ccc(OC)cc2)c(-c2ccc(OC)cc2)n1 [C2 H5 S 1 OCH3 OCH3, 3-ethylthio-5,6-bis(4-methoxyphenyl)-1,2,4-triazine] | 21.3 mcg./12 cm.^2 | 
7 | CCOc1nnc(-c2ccc(OC)cc2)c(-c2ccc(OC)cc2)n1 [C2 H5 O 1 OCH3 OCH3, 3-ethoxy-5,6-bis(4-methoxyphenyl)-1,2,4-triazine] | 3.1 mcg./12 cm.^2 | 
8 | COc1ccc(-c2nnc(SC)nc2-c2ccc(OC)cc2)cc1 [CH3 S 1 OCH3 OCH3, 5,6-bis(4-methoxyphenyl)-3-methylthio-1,2,4-triazine] | 9 mcg./12 cm.^2 | 
9 | COc1ccc(-c2nnc(SC(C)C)nc2-c2ccc(OC)cc2)cc1 [CH(CH3)2 S 1 OCH3 OCH3, 3-isopropylthio-5,6-bis(4-methoxyphenyl)-1,2,4-triazine] |  | 35%
